From patent publication US20060079453A1, “Hla binding peptides and their uses” (priority 2002, published 2006)
Read-outs that look alike come from different tables or passages of the source. No end group written: not given here.

Key:
Test in all cases: biochemical
Assay type in all cases: binding
HLA-DR DRB1*0701 (DR7) = HLA-DR DRB1*0701 (DR7) (Homo sapiens, UniProt P01903+P01911, A100R/A102G/A103Q/D57E/D86V/E43K/F76Y/K127E/L162R/M171V/P40G/Q125H/Q99D/R33Q/R42Y/R54Q/S133A/S66F/T210M/V115G/Y107V/Y59L/Y89S)
HLA-DR DRB1*0802 (DR8) = HLA-DR DRB1*0802 (DR8) (Homo sapiens, UniProt P01903+P01911, A100R/A103L/A169T/F76Y/H45Y/I96F/K41T/L162R/M171V/P40S/Q125H/Q178H/Q39Y/Q99D/R218S/R42G/S66Y/V115G/W38E)
HLA-DR DRB1*0401 (DR4) = HLA-DR DRB1*0401 (DR4) (Homo sapiens, UniProt P01903+P01911, A100K/A169T/F76Y/I96L/K127E/L162R/M171V/N62H/P40V/Q125Y/R42H/S133A/S149N/S66Y/V115G/V209L/W38E)
HLA-DR DRB1*0101 (DR1) = HLA-DR DRB1*0101 (DR1) (Homo sapiens, UniProt P01903+P01911, A100R/D57E/F55L/F60I/F76Y/I96L/L162R/M171V/P40L/Q125E/R42F/V115G/Y59C)
HLA-DR DRB1*0901 (DR9) = HLA-DR DRB1*0901 (DR9) (Homo sapiens, UniProt P01903+P01911, A100R/A103E/D57H/D86V/F55Y/F60I/F76Y/I96F/K127E/L162R/M171V/P40D/Q125H/Q99R/R33Q/R42F/S133A/S66N/T210M/V115G/W38K/Y107V/Y59G/Y89S)
HLA-DR DRB1*0301 (DR3) = HLA-DR DRB1*0301 (DR3) (Homo sapiens, UniProt P01903+P01911, A100K/A102G/A103R/A169T/F55Y/I96L/K41T/L162R/M171V/P40S/Q125H/Q178H/Q39Y/R42S/S66N/T106N/T262R/W38E/Y61H)
HLA-DR DRB1*1501 (DR15) = HLA-DR DRB1*1501 (DR15) (Homo sapiens, UniProt P01903+P01911); details: DRBI *1501
HLA-DR DRB1*1302 (DR13) = HLA-DR DRB1*1302 (DR13) (Homo sapiens, UniProt P01903+P01911, A100E/A169T/K41T/L162R/M171V/P40S/Q125H/Q178H/Q39Y/Q99D/R42S/S66N/T262R/V115G/W38E/Y61H); details: DRBI *1302
HLA-DR DRB1*1101 (DR11) = HLA-DR DRB1*1101 (DR11) (Homo sapiens, UniProt P01903+P01911, A100R/A169T/A87E/I96F/K41T/L162R/M171V/P40S/Q125H/Q178H/Q39Y/Q99D/R42S/S66Y/T262R/V115G/W38E); details: DRB1 *1101
HLA-DR DRB5*0101 (DR51) = HLA-DR DRB5*0101 (DR51) (Homo sapiens, UniProt P01903+Q30154); details: DRB5 *0101
HLA-DR DRB4*0101 (DR53) = HLA-DR DRB4*0101 (DR53) (Homo sapiens, UniProt P01903+P13762, G164S); details: DRB4 *0101

Sequence of HLA-DR DRB1*1101 (DR11) (P01903 26-254 limits assumed, other chains not shown): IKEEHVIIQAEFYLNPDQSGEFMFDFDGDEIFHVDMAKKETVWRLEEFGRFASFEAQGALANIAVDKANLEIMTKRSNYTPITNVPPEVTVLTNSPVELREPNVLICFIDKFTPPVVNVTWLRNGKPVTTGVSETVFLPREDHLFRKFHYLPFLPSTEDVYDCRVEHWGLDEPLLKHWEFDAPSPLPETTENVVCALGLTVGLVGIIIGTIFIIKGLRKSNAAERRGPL
Sequence of HLA-DR DRB1*0301 (DR3) (P01903 26-254 limits assumed, other chains not shown): as above
Sequence of HLA-DR DRB1*1302 (DR13) (P01903 26-254 limits assumed, other chains not shown): as above

Sequence | IC50 (HLA-DR DRB1*0701 (DR7); DRB1 *0701) | IC50 (HLA-DR DRB1*0401 (DR4); DRB1 *0401) | IC50 (HLA-DR DRB1*0101 (DR1); DRB1 *0101) | IC50 (HLA-DR DRB1*0701 (DR7); read-out: DRB1 *0701) | IC50 (HLA-DR DRB1*0401 (DR4); read-out: DRB1 *0401) | IC50 (HLA-DR DRB1*1302 (DR13)) | IC50 (HLA-DR DRB1*0301 (DR3)) | IC50 (HLA-DR DRB1*1101 (DR11)) | other results
MIMIKFMGVIYIMII | 68000 nM | 312 nM | 2900 nM |  |  |  |  |  | IC50 (HLA-DR DRB1*0802 (DR8)): 66100 nM
NYELSKKAVIFTPIY | 5500 nM | 536 nM | 713 nM |  |  |  |  |  | IC50 (HLA-DR DRB1*0802 (DR8)): 141 nM
QAISPRTLNSPAIF |  |  |  | 39700 nM | 6210 nM |  |  |  | IC50 (HLA-DR DRB1*0901 (DR9); read-out: DRB1 *0901): 286000 nM; IC50 (HLA-DR DRB1*0301 (DR3); read-out: DRB1 *0301): 298000 nM; IC50 (HLA-DR DRB1*0101 (DR1); read-out: DRB1 *0101): 1960 nM
QKQLLTNHLINTPK |  |  |  | 4410 nM |  |  |  |  | IC50 (HLA-DR DRB1*0802 (DR8); read-out: DRB1 *0802): 21000 nM
QLQQFQKEDAAVTLY |  |  |  | 500 nM |  |  |  |  | IC50 (HLA-DR DRB1*0901 (DR9); read-out: DRB1 *0901): 55400 nM; IC50 (HLA-DR DRB1*0101 (DR1); read-out: DRB1 *0101): 85 nM
RIVYRDGNPFAVCKV |  | 19 nM |  |  |  | 122 nM | 144 nM |  | IC50 (HLA-DR DRB1*1501 (DR15)): 81 nM; IC50 (HLA-DR DRB1*0901 (DR9); DRB1 *0901): 4960 nM
RTVYRDNNPYGVCIM |  |  |  |  | 20 nM |  |  |  | IC50 (HLA-DR DRB1*0901 (DR9); read-out: DRB1 *0901): 24100 nM; IC50 (HLA-DR DRB1*0101 (DR1); read-out: DRB1 *0101): 524 nM
SEVYDFAFADLTVVY | 1850 nM | 260 nM | 31 nM |  |  | > 13100 nM | 3000 nM | > 18000 nM | IC50 (HLA-DR DRB1*1501 (DR15)): 955 nM; IC50 (HLA-DR DRB5*0101 (DR51)): 11800 nM
SKIMKLPKLPISNGK | 83700 nM | 6480 nM | 824 nM |  |  |  |  |  | IC50 (HLA-DR DRB1*0802 (DR8)): 110 nM
SMEYKKDFLITARKP |  |  |  | 776 nM | 24 nM |  |  |  | IC50 (HLA-DR DRB1*0802 (DR8); read-out: DRB1 *0802): 8900 nM
SVTWIGAAPLILSPI |  |  |  | 83 nM | 3150 nM |  |  |  | IC50 (HLA-DR DRB1*0901 (DR9); read-out: DRB1 *0901): 30 nM; IC50 (HLA-DR DRB1*0301 (DR3); read-out: DRB1 *0301): > 81800 nM; IC50 (HLA-DR DRB1*0101 (DR1); read-out: DRB1 *0101): 4.1 nM
TLRLCVQSTHVDIRT | 3260 nM | 12000 nM | 1520 nM |  |  | 932 nM |  | 17600 nM | IC50 (HLA-DR DRB5*0101 (DR51)): > 22900 nM; IC50 (HLA-DR DRB1*0901 (DR9); DRB1 *0901): 6370 nM; IC50 (HLA-DR DRB4*0101 (DR53)): 243 nM
TYSYSFDSLFSAVKN |  |  |  |  | 73 nM |  |  |  | IC50 (HLA-DR DRB1*0802 (DR8); read-out: DRB1 *0802): 2260 nM
VLDLYPEPTDLYCYE | > 72300 nM | 203 nM | 11200 nM |  |  | > 12000 nM | 121 nM | > 15200 nM | IC50 (HLA-DR DRB1*1501 (DR15)): 21600 nM; IC50 (HLA-DR DRB5*0101 (DR51)): > 15300 nM; IC50 (HLA-DR DRB1*0901 (DR9); DRB1 *0901): > 32200 nM; IC50 (HLA-DR DRB4*0101 (DR53)): 18 nM
VQQLLMGALTVTCPL | 71 nM |  | 10 nM |  |  | 574 nM | 34300 nM | 11100 nM | IC50 (HLA-DR DRB5*0101 (DR51)): 7150 nM; IC50 (HLA-DR DRB1*0901 (DR9); DRB1 *0901): 180 nM; IC50 (HLA-DR DRB4*0101 (DR53)): 204 nM
VRTLQQLLMQTCTIV |  |  |  | 1820 nM | 322 nM |  |  |  | IC50 (HLA-DR DRB1*0901 (DR9); read-out: DRB1 *0901): 496 nM; IC50 (HLA-DR DRB1*0101 (DR1); read-out: DRB1 *0101): 36 nM
VYDFAFADLTVVYRE | 7010 nM |  | 173 nM |  |  | > 13100 nM |  | > 18000 nM | IC50 (HLA-DR DRB1*1501 (DR15)): 9450 nM; IC50 (HLA-DR DRB1*0901 (DR9); DRB1 *0901): 155 nM; IC50 (HLA-DR DRB4*0101 (DR53)): 10700 nM
YGIIVPVLTSLFNKV |  |  |  | 60 nM | 2 nM |  |  |  | IC50 (HLA-DR DRB1*0802 (DR8); read-out: DRB1 *0802): 793 nM; IC50 (HLA-DR DRB1*0101 (DR1); read-out: DRB1 *0101): 6 nM
YKSAHKGFKGVDAQGTLSKI | 108 nM |  | 70 nM |  |  |  | > 900000 nM | 2000 nM | IC50 (HLA-DR DRB5*0101 (DR51)): 1330 nM
YNFACTELKLVYRDD | 2870 nM | 1980 nM | 7520 nM |  |  | 10200 nM | 346 nM |  | IC50 (HLA-DR DRB4*0101 (DR53)): 12900 nM
YSYFPSIR | 7220 nM |  | ≥ 50000 nM |  |  |  | > 900000 nM | 20000 nM | IC50 (HLA-DR DRB5*0101 (DR51)): > 200000 nM
